Experimental data reported in patent USRE49311E1, “Bacillus thuringiensis RTI545 compositions and methods of use for benefiting plant growth and controlling plant pests” (priority 2016, dated 2022).

Key:
[1] = tested on: wireworm (Melanotus spp.); assay: In-furrow corn field trials, wireworm-infested plots (7 trials, North America); assay type: in vivo; conditions: vs untreated, average of 7 trials; bifenthrin 56 g ai/Ha, RTI545 3 × 10^11 CFU/Ha, tefluthrin 168 g ai/Ha
From the text: (§1) In-furrow treatments of corn with RTI545 were studied in multiple field trials in various locations in North America to evaluate effectiveness against wireworm (Melanotus spp.) and corn rootworm (Diabrotica spp.). The effects on yield and crop damage of several treatments compared to untreated controls for the individual North America trials were aggregated and summarized as an average for the trial in the following tables as % yield increase and % reduction in damage compared to the untreated controls. Seven trials were evaluated for wireworm. Eighteen trials were evaluated for corn rootworm. Five trials with heavy damage from corn rootworm were averaged separately.

[2] = tested on: corn rootworm (Diabrotica spp.); assay: In-furrow corn field trials, corn rootworm-infested plots (18 trials, North America); assay type: in vivo; conditions: vs untreated, bifenthrin 112 g ai/Ha, RTI545 1.24 × 10^12 CFU/Ha, tefluthrin 168 g ai/Ha; for % Damage reduction, Heavy CRW Pressure / % Yield Increase, Heavy CRW Pressure: 5 trials; for % Damage reduction / % Yield Increase: 18 trials
From the text: as §1

[3] = tested on: root knot (RKN) nematode juveniles (J2); assay: Nematode chemotaxis assay on agar plates; assay type: in vivo, Meloidogyne spp.; conditions: for Cf (chemotaxis factor) at 3 h / Cf (chemotaxis factor) at 5 h: Cf<0.5 repellent, >2 attractant
Method: Similarly, activity of RTI545 against nematodes may also be due to compound(s) produced by the strain. A nematode chemotaxis assay on agar plates was conducted as described below to evaluate response of root knot (RKN) nematode juveniles (J2) to different concentrations of kanosamine and RTI545 supernatant in vitro.
The test arena is shown schematically in FIG. 6. Nine-cm-diameter Petri dishes were filled with 15 ml 0.75% Phytagel (including 0.1% MgSO4.7H2O). […] was used, instead of water agar, so that nematode tracks could be observed under a microscope. Wells of 0.5 cm diameter which can accommodate approximately 50 μl of solution were made at opposite sides of the dishes at 2 cm from the center. The test samples were applied in the wells and left to diffuse for 1 hour with lids on the dishes, so a gradient around the wells could be established. Then, 75-100 J2 stage root-knot nematodes suspended in 5 μl of sterile distilled water were placed by pipette in the center 1.5 cm-diameter circle of the plate. When the surface tension of the water suspension was lost, the dishes were covered with lids and incubated in the dark on a leveled platform at 25° C. for […]. After incubation the plates were transferred to 4° C. to stop nematode movement for scoring at 2 h, 3 h and 5 h after setup. Three replicates were done for each test material.
For scoring, the test arena was divided into sixteen zones, designated as 1-8 for attractive zones and a-h for repellent zones as shown in FIG. 6A. Nematodes attracted to the test substance would tend to move to the numbered (attractive) zones, resulting in clustering along the axis parallel to the orientation of the wells. Repelled nematodes would tend to move to the lettered (repellant) zones, resulting in clustering along the axis perpendicular to the orientation of the wells. The chemotaxis factor (Cf) was calculated by dividing the total number of nematodes in the attractant zones by the total number of nematodes in the repellent zones. A Cf greater than 2 meant attraction for the nematodes, while lower than 0.5 indicated repellence, and 0.5 to 2 was considered neutral.

[4] = tested on: lesion nematode; assay: Soil drench tests against lesion nematode; assay type: in vivo, Pratylenchus penetrans
From the text: Similar tests wherein RTI545 was applied as a soil drench at the rate of 2.5×10^11 CFU/ha provided 71% reduction in lesion nematode numbers per root compared to 95% for abamectin. In soil drench tests applied to pots in the greenhouse with soil infested with lesion nematode eggs and adults (2000 individuals/pot) RTI545 at the rate of 2.5×10^13 CFU/ha provided 80% reduction in nematode numbers per root compared to 86% reduction by cadusafos.

[5] = tested on: root knot nematode (RKN) eggs; assay: Root knot nematode egg hatching assay, 24-well plates; assay type: in vivo, Meloidogyne incognita/hapla; conditions: for % Hatching after 7 days / % Hatching after 14 days: mean of 6 replicates ± SD
Method: The following day, the optical density (OD) of 1:100 dilutions was measured at 600 nm to estimate the volume needed for inoculation of fermentation flasks. […] Bacteria were grown overnight (for 16 h) at 200 rpm at 30° C. Two ml of bacterial culture was saved to measure the OD and colony forming units (CFU). The remaining culture was centrifuged (2500 rpm, 15 min) and the supernatant was filter-sterilized through a 0.22 μm filter. […] The supernatant was kept at 4° C. until the initiation of the bioassay. […] A mixed culture of root knot nematodes (Meloidogyne incognita and M. hapla) was used. Nematode eggs were extracted from tomato roots by bleaching and cleaned using an Opti-prep centrifugation step followed by two washes in water. Before setting up the hatching assay, the percentage of early (eggs with a visible embryo) and late eggs (eggs with differentiated juveniles inside; […] Only fresh eggs (collected at the day of the initiation of the assay) were used for the bioassay. The assay was performed in 24-well tissue culture plates. […] Antibiotics were suspended in sterile distilled water. The final concentration of antibiotics in testing plates was 75 mg/L of penicillin and 75 mg/L of streptomycin. […] The addition of methyl cellulose increases the accuracy of adding the same number of inoculum to each treatment. The treatments were set up in 6 replications. Each plate was covered, wrapped in aluminum foil and placed in an incubator set at 25° C. […] For each time point and treatment, the percent hatching was calculated according to the formula: […] All treatments were supplemented with antibiotics (75 mg/L of penicillin and 75 mg/L of streptomycin) to prevent contamination. Data are means from 6 replicates± standard deviation of the means.

[6] = tested on: soybean cyst nematode (Heterodera glycines); assay: Soybean cyst nematode soil drench assay, greenhouse; assay type: in vivo; conditions: day 70
[7] = tested on: Southern Corn Rootworm (SCRW) larvae; assay: SCRW larvae choice feeding assay of corn seedlings; conditions: for Mean percent of SCRW larvae on treated portion of the filter paper / Mean percent of SCRW larvae on untreated portion of the filter paper: 3 days
Method: Repellency was measured using a choice in vitro plate feeding assay of corn seedlings by SCRW larvae and scored after 72 hours as the percentage of SCRW larvae on the non-treated side of the plate. In the case of no repellency, an equal distribution of 50% on both the treated and non-treated half of the plate would be expected, indicating 0% repellency. In this experiment, the Bacillus thuringiensis RTI545 and Bacillus thuringiensis subsp. kurstaki HD-1 (HD-1), were evaluated in comparison to a water control after 3 days in the assay.
The choice feeding assay for SCRW larvae using corn seedlings was also repeated to compare RTI545 to another Bacillus thuringiensis strain FD30 and kanosamine. […] Repellency was measured using a choice in vitro plate feeding assay of corn seedlings by SCRW larvae and scored after 72 hours as the percentage of SCRW larvae on the non-treated side of the plate. In the case of no repellency, an equal distribution of 50% on both the treated and non-treated half of the plate would be expected, indicating 0% repellency.

[8] = RTI545 2.5 × 10^12 CFU/ha, Abamectin 0.01 ppm, VENERATE XC 500 mg/plant
[9] = RTI545 2.5 × 10^13 CFU/ha, Abamectin 0.1 ppm
[10] = kanosamine 100 μg/ml (alone or + FD30)

Molecule: Cc1c(COC(=O)[C@@H]2[C@H](/C=C(\Cl)C(F)(F)F)C2(C)C)cccc1-c1ccccc1 (racemic) [Bifenthrin]
- % Yield Increase [1]: 5%
- % Damage reduction, Heavy CRW Pressure [2]: 45%
- % Yield Increase, Heavy CRW Pressure [2]: 11%
- % Damage reduction [2]: 42%
- % Yield Increase [2]: 4%

Molecule: Cc1c(F)c(F)c(COC(=O)[C@@H]2[C@H](/C=C(\Cl)C(F)(F)F)C2(C)C)c(F)c1F (racemic) [Tefluthrin]
- % Yield Increase [1]: 5%
- % Damage reduction, Heavy CRW Pressure [2]: 52%
- % Yield Increase, Heavy CRW Pressure [2]: 16%
- % Damage reduction [2]: 46%
- % Yield Increase [2]: 3%

Molecule: CC(=O)O [Acetic Acid]
- Cf (chemotaxis factor) at 3 h ([3]; acetic acid 1%): 0.45
- Cf (chemotaxis factor) at 5 h ([3]; acetic acid 1%): 0.4
- Cf (chemotaxis factor) at 2 h ([3]; acetic acid 1%, data not shown): neutral

Molecule: CCOP(=O)(SC(C)CC)SC(C)CC (stereo not shown) [cadusafos]
- Reduction in nematode numbers per root ([4]; soil drench to greenhouse pots, eggs and adults 2000 individuals/pot, RTI545 2.5×10^13 CFU/ha): 86%

Molecule: abamectin
- % Hatching after 7 days ([5]; abamectin 0.1 ppm): 24.4 ± 2.9%
- % Hatching after 14 days ([5]; abamectin 0.1 ppm): 27.8 ± 5.7%
- % Hatching after 7 days ([5]; abamectin 1.0 ppm): 4.9 ± 0.9%
- % Hatching after 14 days ([5]; abamectin 1.0 ppm): 8.5 ± 1.6%
- Egg hatching inhibition ([5]; rate of 1 ppm, after 14 days): 72%
- Reduction in lesion nematode numbers per root ([4]; soil drench, RTI545 2.5×10^11 CFU/ha): 95%
- % Reduction of cysts [6, 8]: 79%
- Number of cysts extracted [6, 8]: 31
- % Reduction of cysts [6, 9]: 96%
- Number of cysts extracted [6, 9]: 7

Molecule: kanosamine
- Cf (chemotaxis factor) ([3]; all tested kanosamine rates (1, 10 and 100 μg/ml) and all time points): higher than 0.5
- Cf (chemotaxis factor) at 3 h ([3]; kanosamine 1 μg/ml): 1.0
- Cf (chemotaxis factor) at 5 h ([3]; kanosamine 1 μg/ml): 1.0
- Cf (chemotaxis factor) at 3 h ([3]; kanosamine 10 μg/ml): 0.6
- Cf (chemotaxis factor) at 5 h ([3]; kanosamine 10 μg/ml): 0.7
- Cf (chemotaxis factor) at 3 h ([3]; kanosamine 100 μg/ml): 0.6
- Cf (chemotaxis factor) at 5 h ([3]; kanosamine 100 μg/ml): 0.7
- Hatching rate higher than in water control ([5]; after seven days): up to 80%
- % Hatching after 7 days ([5]; kanosamine 1 μg/ml): 35.9 ± 5.2%
- % Hatching after 14 days ([5]; kanosamine 1 μg/ml): 40.1 ± 6.8%
- % Hatching after 7 days ([5]; kanosamine 10 μg/ml): 39.4 ± 3%
- % Hatching after 14 days ([5]; kanosamine 10 μg/ml): 42.1 ± 12.1%
- % Hatching after 7 days ([5]; kanosamine 100 μg/ml): 32.4 ± 4.8%
- % Hatching after 14 days ([5]; kanosamine 100 μg/ml): 41.6 ± 6.8%
- Mean percent of SCRW larvae on treated portion of the filter paper ([7]; kanosamine 10 μg/ml): 16.67%
- Mean percent of SCRW larvae on untreated portion of the filter paper ([7]; kanosamine 10 μg/ml): 83.33%
- Mean percent of SCRW larvae on treated portion of the filter paper [7, 10]: 16.67%
- Mean percent of SCRW larvae on untreated portion of the filter paper [7, 10]: 83.33%
- Repellent effects on SCRW ([7]; all dilution rates between 0.1 μg/ml and 100.0 μg/ml, at 24 h, two separate bioassays): repellent effects
- Feeding damage on corn ([7]; at 3 d, choice assay): minimal feeding damage
- Repellency to SCRW ([7]; second test, filter paper treated with 30.0 ug/ml, out to 5 days): complete repellency
- Avoidance response of SCRW ([7]; treated filter paper at 10 and 100 μg/ml): 80%
